{"source": "patent US20140315972A1", "about": "“RS)-2-(2-oxo-4-phenylpyrrolidin-1-yl)acetamide compound having modulatory activity with a commensurate effect, pharmaceutical substance (variants) and its application, composition (variants) thereof” (priority 2011, published 2014)", "key": {"[1]": {"tested_on": "mycobacteria (MTB), strain H37Rv", "experiment": "Mycobacteria (MTB) culture growth in vitro", "assay_type": "cell-based", "method": "The presence of the proper anti-inflammatory effect in Phenotropil formed the basis for investigation of the effect of the drug on more complex pathological agents. The effect of different concentrations of Phenotropil on the mycobacteria (MTB) culture growth in vitro according to research standards (test culture—highly virulent laboratory strain H37Rv) was studied. A wide range of drug concentrations was prepared: 1 series—100, 50, 10 μg/ml, 2 series—from 10 to 0.31 μg/ml, and 3 series—from 2 to 0.031 μg/ml. To prepare the matrix solution, the sterile distilled water was used, and the Shkolnikova medium was used to prepare the said concentrations. To assess the growth and morphological properties of the MTB culture, suspended mycobacteria at appropriate concentrations of Phenotropil solution were inoculated on the Lowenstein-Jensen medium and Shkolnikova medium (4 tubes for each point). After 2 weeks, the presence of growth was determined visually in the Shkolnikova medium and smears from the sediment were prepared. The smears were fixed and stained according to Ziehl-Neelsen method. The number of mycobacteria in smears was counted and, based on the results obtained, the concentration of the drug at which the inhibition of the growth was observed was determined. The number of the MTB colonies and their morphological characteristics were evaluated on the Lowenstein-Jensen medium after four weeks from the time of inoculation. Registration of the results was also carried out four weeks after inoculation."}, "rats": {"tested_on": "rats", "experiment": "Carrageenan-induced paw edema", "assay_type": "in vivo", "conditions": "100 mg/kg intragastrically 60 minutes before carrageenan", "method": "To identify and assess the anti-inflammatory action of Phenotropil, a standard technique was used; the carrageenan-induced paw edema in rats (Winter C. et al, 1962). Phenotropil at a dose of 100 mg/kg was administered intragastrically 60 minutes before carrageenan. Control animals received distilled water. Additionally, the topical application by method of formalin induced edema was investigated (subplantar administration of 0.1 ml of 2% formalin solution). Phenotropil for topical use was prepared (1:1) on the standard ointment base carrier at 100 mg/kg of body weight for each animal (150-220 g). The preparation was rubbed in the leg and a gauze patch was applied for 2 hours and 1 hour before the induction of inflammation."}, "[2]": {"experiment": "Slendering effect, body weight and rating scales in obese humans", "assay_type": "in vivo, human", "conditions": "for Body weight (%): adult humans, change vs background (not treated) = 100; for decrease of body weight: obese women", "method": "A study of the slendering effect of Phenotropil (100, 200 and 300 mg once a day for 30 days) in women (37-65 years) with alimentary constitutional obesity and non-obese groups (males and females 23-47 years) are presented in Table 26. The control groups received placebo tablets. The nutrition regimen and ration were not regulated; no recommendations on calories or regimen were given. The purpose of the study was to identify the effect of the drug without the influence of the diet. To assess the condition before and after treatment, in addition to the measurement of body weight, the dynamics of the general clinical condition was studied: asthenia scale MFI-20, Hospital Anxiety and Depression Scale, the quality of life scale SF-36. The questionnaires were completed twice: one day before treatment and the next day after the end of treatment."}, "patients": {"tested_on": "patients", "experiment": "Amenorrhea in patients on neuroleptic therapy", "assay_type": "in vivo, human", "conditions": "tablets 100 or 200 mg per day, 3 months", "method": "Investigation of the effect of Phenotropil in amenorrhea and functional dysmenorrhea was conducted on groups of patients aged 14-27 years. The first group (20-27 years) diagnosed with schizophrenia, was on the maintenance neuroleptic therapy and had menstrual cycle irregularities in the form of amenorrhea (for more than 6 months). Of those, 4 had amenorrhea of not established nature, observed also prior to the pronounced primary manifestation of mental disorder, 6 patients had amenorrhea that developed during treatment with neuroleptics. Phenotropil, tablets was administered in doses of 100 mg and 200 mg per day as part of a complex antipsychotic therapy as a corrector of psychogenic side effects of neuroleptics. The dose was selected based on the individual and clinical features of the patients. The duration of Phenotropil therapy was 3 months. Two groups (14-18 years) with functional dysmenorrhea and manifestations of pronounced spastic symptoms were studied. Duration of the Phenotropil monotherapy (50 and 100 mg per day) was one month followed by administration of the drug at one-week courses as a preventive agent. Patients with functional dysmenorrhea were investigated for cAMP level in comparison with the norm control group. The cAMP level was determined using the standard kits, by the method based on the competition with the labeled cyclic 3′,5-adenosine monophosphate in the level of binding with […]."}}, "note": "Marks after values point to notes of the source that are not given here."}
{"molecule": "NC(=O)CN1CC(c2ccccc2)CC1=O", "note": "(racemic) [Compound 1, (RS)-2-(2-oxo-4-phenylpyrrolidine-1-yl)acetamide]", "values": [{"measurement": "Mean number of MTB colonies", "setting": "[1]; 0.031 ug/ml", "value": "contiguous"}, {"measurement": "Mean number of MTB colonies", "setting": "[1]; 0.063 ug/ml", "value": "contiguous"}, {"measurement": "Mean number of MTB colonies", "setting": "[1]; 0.125 ug/ml", "value": 107}, {"measurement": "Mean number of MTB colonies", "setting": "[1]; 0.250 ug/ml", "value": 97}, {"measurement": "Mean number of MTB colonies", "setting": "[1]; 0.310 ug/ml", "value": 83}, {"measurement": "Mean number of MTB colonies", "setting": "[1]; 0.500 ug/ml", "value": 70}, {"measurement": "Mean number of MTB colonies", "setting": "[1]; 0.630 ug/ml", "value": 65}, {"measurement": "Mean number of MTB colonies", "setting": "[1]; 1.0 ug/ml", "value": 67}, {"measurement": "Mean number of MTB colonies", "setting": "[1]; 1.25 ug/ml", "value": 74}, {"measurement": "Mean number of MTB colonies", "setting": "[1]; 2.0 ug/ml", "value": 79}, {"measurement": "Mean number of MTB colonies", "setting": "[1]; 5.0 ug/ml", "value": 90}, {"measurement": "Mean number of MTB colonies", "setting": "[1]; 10.0 ug/ml", "value": 123}, {"measurement": "Mean number of MTB colonies", "setting": "[1]; 50.0 ug/ml", "value": "contiguous"}, {"measurement": "Mean number of MTB colonies", "setting": "[1]; 100 ug/ml", "value": "contiguous"}, {"measurement": "number of MTB colonies", "setting": "[1]; concentrations from 0.25 to 5.0 μg/ml", "value": "Less than 100"}, {"measurement": "shortening of inflammation vs control", "setting": "rats", "value": 52.3, "unit": "%"}, {"measurement": "Body weight (%)", "setting": "[2]; 100 mg/day", "value": "−12.0 * %"}, {"measurement": "Body weight (%)", "setting": "[2]; 200 mg/day", "value": "−15.0 * %"}, {"measurement": "Body weight (%)", "setting": "[2]; 300 mg/day", "value": "−17.8 * %"}, {"measurement": "positive effect on cramps when urinating, patients", "setting": "[2]; comorbidities", "value": "5 of 5"}, {"measurement": "positive effect on lost ability to sense and discriminate odors, patients", "setting": "[2]; comorbidities", "value": "11 of 18"}, {"measurement": "positive effect on prostatitis, patients", "setting": "[2]; comorbidities", "value": "3 of 3"}, {"measurement": "positive trend in chronic sinusitis, patients", "setting": "[2]; comorbidities", "value": "8 of 8"}, {"measurement": "decrease of body weight", "setting": "[2]; 100 mg once a day 30 days", "value": 12, "unit": "%"}, {"measurement": "decrease of body weight", "setting": "[2]; 200 mg once a day 30 days", "value": 15, "unit": "%"}, {"measurement": "decrease of body weight", "setting": "[2]; 300 mg once a day 30 days", "value": 18, "unit": "%"}, {"measurement": "decrease of anxiety and depression, on average", "setting": "[2]; rating scales after 30 days", "value": "more than 60%"}, {"measurement": "decrease of indicators of fatigue", "setting": "[2]; rating scales after 30 days", "value": 92, "unit": "%"}, {"measurement": "patients restored, amenorrhea of unknown nature", "setting": "patients", "value": 30.0, "unit": "%"}, {"measurement": "patients restored, amenorrhea on antipsychotic therapy", "setting": "patients", "value": 40.0, "unit": "%"}, {"measurement": "patients with restored menstruations and menstrual cycle", "setting": "patients; n=10", "value": 70, "unit": "%"}]}
